From article PMC10649968, “Structural Basis of the Immunological Cross-Reactivity between Kiwi and Birch Pollen” (Foods, 2023)

Columns and labels:
Act d 8 = target: T1, Act d 8 (Actinidia deliciosa, UniProt D1YSM5); assay: 1H-15N HSQC NMR titration (chemical shift perturbations); format: binding
T1 construct: gene ypr-10
T1 sequence (D1YSM5 1-157): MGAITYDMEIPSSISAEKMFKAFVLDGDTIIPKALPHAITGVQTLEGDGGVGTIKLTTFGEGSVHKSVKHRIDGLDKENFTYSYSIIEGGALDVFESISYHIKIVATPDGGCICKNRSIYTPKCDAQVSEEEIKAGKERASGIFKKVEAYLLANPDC

Act c 8 = target: T2, Act c 8 (Actinidia chinensis, UniProt D1YSM4); assay: as above; format: binding
T2 construct: gene ypr-10
T2 sequence (D1YSM4 1-159): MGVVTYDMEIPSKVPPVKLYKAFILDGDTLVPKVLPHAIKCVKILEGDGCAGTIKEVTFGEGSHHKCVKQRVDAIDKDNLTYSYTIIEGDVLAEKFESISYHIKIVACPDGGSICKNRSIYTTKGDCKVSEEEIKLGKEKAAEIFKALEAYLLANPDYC

Kd (Act d 8): 5 mM | Kd (Act c 8): 30 mM
Compound: Oc1cccc(O)c1O [pyrogallol]
